In brackets after ≈: the same amount, converted by molar mass. Like-named read-outs stand apart in the source and are kept apart here.
How the values were obtained:
[1] = JP,A, 6-22770; cited from earlier work
[2] = system: Human Epidermic Cancer A431 Cells; assay: Growth inhibition against Human Epidermic Cancer A431 cells (MTT); assay type: cell-based; settings: read-out: 50% growth inhibitory concentration (IC50), A431
Method: Growth Inhibition against Human Epidermic Cancer A431 Cells
Human Epidermic Cancer A431 cells were put into a 96-well microtiter plate (Nunc #167008) at 3×10^3 cells/well, and cultured in a 5% CO2 incubator at 37° C. for 24 hours. Each of 3 μg/ml GEX1 compounds was stepwise diluted. Each dilution was put into each well in an amount of 50 μl. The final concentration of the resulting suspension, in the wells of the plate was controlled to be at most 1 μg/ml. The cells were further cultured in the 5% CO2 incubator at 37° C. for 72 hours. Five hours before the termination of the incubation, MTT [3-(4,5-dimethylthiazo-2-yl)-2,5-diphenyltetrazolium bromide, Sigma Co., St. Louis, Mo.] dissolved in a medium as used for the culturing was put into each well in an amount of 50 μl, the final concentration of MTT added in each well being 1 mg/ml. After the culturing, DMSO was added to each well in an amount of 150 μl, followed by vigorous stirring with a plate mixer to completely dissolve crystals of MTT-formazan. The absorbance at 550 nm was measured by using a microplate reader MTP-32 (Corona Electric Co., Ltd.). and the cell growth inhibiting activity of each GEX1 compound tested was expressed in terms of 50% growth inhibitory concentration (IC50).

[3] = Solubility (physicochemical data)
[4] = A-431, A431 cells, 72 hours, MTT, absorbance at 550 nm

Structure (SMILES)	antitumor activity [1]	IC50 ([2]; A-431, 72 h)	Solubility in chloroform [3]	Solubility in dimethylsulfoxide (DMSO) [3]	Solubility in hexane [3]	Solubility in methanol [3]	IC50 [2, 4]	Solubility in water ([3]; water)
COC(C(C)O)C(C)C1OC1(C)CC(C)C=CC=C(C)C1OC(CC(=O)O)CCC1C (centres unmarked) [TAN-1609]	has antitumor activity							
COC(C(C)O)C(C)C1OC1(C)CC(C)(O)C=CC=C(C)C1OC(CC(=O)O)CCC1C (centres unmarked) [GEX1Q2]		0.23 µg/mL (≈ 0.506 µM)	hardly soluble	Soluble	hardly soluble	Soluble		
COC(C(C)O)C(C)C1OC1(C)CC(C)C=CC=C(CO)C1OC(CC(=O)O)CCC1C (centres unmarked) [GEX1Q4]		0.45 µg/mL (≈ 0.99 µM)	hardly soluble	Soluble	hardly soluble	Soluble		
COC(C(C)O)C(C)C1OC1(C)CC(C)C=CC=C(C)C1OC(CC(=O)O)CC(O)C1C (centres unmarked) [GEX1Q1]			hardly soluble	Soluble	hardly soluble	Soluble	0.42 µg/mL (≈ 0.924 µM)	
CC(=CC=CC(C)CC1(C)OC1C(C)C(O)C(C)O)C1OC(CC(=O)O)CCC1C (centres unmarked) [GEX1Q5]				Soluble	hardly soluble	Soluble	0.0053 µg/mL (≈ 0.0125 µM)	
COC(C(C)O)C(C)C1OC1(C)CC(C)C=CC=C(C)C1OC(CC(=O)OC2OC(C(=O)O)C(O)C(O)C2O)CCC1C (centres unmarked) [GEX1Q3]		0.02 µg/mL (≈ 0.0325 µM)	hardly soluble	Soluble	hardly soluble	Soluble		Soluble

Reference: patent publication US5719179A, “Compound GEX1” (Kyowa Hakko Kogyo Co., Ltd., priority 1995, dated 1998)
